Among the data in patent US10226453B2, “3-(1H-indol-2-yl)-1H-pyrazolo[4,3-B]pyridines and therapeutic uses thereof” (Samumed, LLC, priority 2015, dated 2019) are EC50, Emax and inhibition values, retold here.

SMILES strings stand for the structures.

The term inhibition denotes the share of the control response that was lost under treatment.

Holding throughout (type): cell-based
Assay [1] has as its system Wnt activity (Sp5-Luc reporter, SW480 colon carcinoma cells). The assay can be described thus: Wnt activity screening assay: Sp5-Luc reporter gene in SW480 colon carcinoma cells. The settings on record: Homo sapiens; for EC50: overnight incubation, 10-point curve from 10 μM. In outline: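 Wnt-driven firefly luciferase in SW480 colon carcinoma cells reports pathway activity after overnight compound exposure (10 μM top concentration, 3-fold steps). Signal is normalized to DMSO controls.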

Assay [2] relates to primary human mesenchymal stem cells (hMSCs). The assay can be described thus: Induction of chondrogenesis in primary human mesenchymal stem cells (hMSCs), nodule count. The settings on record: 144 h, 6 days; for EC50: concentration required to induce 50% levels of chondrogenesis of TGF-β3 control, read-out: Conc (nM) of 50% TGF-β3 activity; for Emax: relative to TGF-β3 (10 ng/mL) positive control, read-out: Max. Activity as % TGF-β3 activity. How it is done: Representative compounds were screened using primary human mesenchymal stem cells (hMSCs) to determine their ability to induce chondrogenesis (process by which cartilage is developed).
Primary human mesenchymal stem cells (hMSCs) were purchased from Lonza (Walkersville, Md.) and expanded in Mesenchymal Stem Cell Growth Media (Lonza). Cells between passage 3 and 6 were used for the experiments.
Each compound was dissolved in DMSO as a 10 mM stock and used to prepare compound source plates. Serial dilution (1:3, 6-point dose-response curves from 2700 nM to 10 nM) and compound transfer was performed using the ECHO 550 (Labcyte, Sunnyvale, Calif.) into 96-well clear bottom assay plates (Greiner Bio-One) with appropriate DMSO backfill for a final DMSO concentration of 0.03%. hMSCs were plated at 20,000 cells/well in 250 μL/well Incomplete Chondrogenic Induction Medium (Lonza; DMEM, dexamethasone, ascorbate, insulin-transferrin-selenium [ITS supplement], gentamycin-amphotericin [GA-1000], sodium pyruvate, proline and L-glutamine). TGF-β3 (10 ng/mL) was used as a positive control for differentiation while negative control wells were treated with 75 nL DMSO for normalization and calculating EC50 values. Cells were incubated at 37° C. and 5% CO2 for 6 days. To image chondrogenic nodules, the cells were fixed using 4% formaldehyde (Electron Microscopy Sciences), and stained with 2 μg/mL Rhodamine B (Sigma-Aldrich) and 20 μM Nile Red (Sigma-Aldrich) [Johnson K., et. al, A Stem Cell-Based Approach to Cartilage Repair, Science, (2012). 336(6082), 717-721]. The nodules imaged (4 images per well at 4× magnification) by excitation at 531 nm and emission at 625 nm and quantified using the CellInsight CX5 (Thermo Scientific). Number of nodules in each well was normalized to the average of 3 DMSO treated wells on the same plate using Excel (Microsoft Inc.). The normalized averages (fold change over DMSO) of 3 replicate wells for each compound concentration were calculated. Due to solubility limitations of some of the compounds, curve fitting was incomplete leading to inaccurate EC50 determinations.
Using TGF-β3 as a positive control, the concentration of representative compounds required to induce 50% levels of chondrogenesis is reported. In addition, the maximum activity of each compound and the respective dose that each compound reached maximum chondrogenesis activity is reported.

For assay [3], the system named is IL-6 (THP-1 cells). The assay can be described thus: IL-6 inhibition in LPS-stimulated THP-1 human monocyte cells (HTRF). The settings on record: LPS 500 ng/mL; for EC50: 22 hours, IL6 HTRF; for inhibition at 10 µM: given where EC50 >10 μM, read-out: percent inhibition at 10 μM. In outline:
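THP-1 cells, serum-reduced (1% FBS) for 24 h, were preincubated with compound (10-point 1:3 series from 10 μM, 0.1% DMSO) for 2 h, then stimulated with 500 ng/mL LPS for 22 h at 37° C. IL-6 was read by HTRF (665/620 nm ratio) and normalized to DMSO. EC50 from four-parameter fit; % inhibition at 10 μM given if EC50 >10 μM.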
For orientation: TR-FRET usually uses a lanthanide donor and a delayed reading to cut background.

For `c1cc(-c2ccncc2)c2cc(-c3n[nH]c4ccc(-c5cncc(CN6CCCCC6)c5)nc34)[nH]c2c1` [Compound 127, 5-(5-(Piperidin-1-ylmethyl)pyridin-3-yl)-3-(4-(pyridin-4-yl)-1H-indol-2-yl)-1H-pyrazolo[4,3-b]pyridine], the EC50 in assay [1] was 5160 nM; in assay [2] it was 2700 nM; in assay [3] it was 483 nM. In assay [2], the Emax stood at 151%.
The corresponding values for `FC1(F)CCN(Cc2cncc(-c3ccc4[nH]nc(-c5cc6c(-c7ccccn7)cccc6[nH]5)c4n3)c2)C1` [Compound 166, 5-(5-((3,3-Difluoropyrrolidin-1-yl)methyl)pyridin-3-yl)-3-(4-(pyridin-2-yl)-1H-indol-2-yl)-1H-pyrazolo[4,3-b]pyridine] are 432 nM, 10 nM, 306 nM and 82%.
On to `c1ccc(-c2cccc3[nH]c(-c4n[nH]c5ccc(-c6cncnc6)nc45)cc23)nc1` [Compound 167, 3-(4-(Pyridin-2-yl)-1H-indol-2-yl)-5-(pyrimidin-5-yl)-1H-pyrazolo[4,3-b] pyridine], for which, in assay [1], the EC50 turned out to be 431 nM. In addition, the Emax in assay [2] came to 41%. In assay [3], the EC50 is > 10000 nM and the inhibition at 10 µM was found to be 12.8%.
As for `CCCCC(=O)Nc1cncc(-c2ccc3[nH]nc(-c4cc5c(N6CCCCC6)cccc5[nH]4)c3n2)c1` [Compound 187, N-(5-(3-(4-(Piperidin-1-yl)-1H-indol-2-yl)-1H-pyrazolo[4,3-b]pyridin-5-yl)pyridin-3-yl)pentanamide], the EC50 in assay [1] worked out at 572 nM; in assay [2], 100 nM; in assay [3], 85 nM. The Emax in assay [2] was determined as 69%.
The corresponding values for `Cc1ccncc1-c1ccc2[nH]nc(-c3cc4c(N5CCN(C)CC5)cccc4[nH]3)c2n1` [Compound 229, 3-(4-(4-Methylpiperazin-1-yl)-1H-indol-2-yl)-5-(4-methylpyridin-3-yl)-1H-pyrazolo[4,3-b]pyridine] are 2020 nM, 10 nM, 1280 nM and 63%.
In the case of `CN1CCN(c2cccc3[nH]c(-c4n[nH]c5ccc(-c6cncc(NC(=O)c7ccccc7)c6)nc45)cc23)CC1` [Compound 235, N-(5-(3-(4-(4-Methylpiperazin-1-yl)-1H-indol-2-yl)-1H-pyrazolo[4,3-b]pyridin-5-yl)pyridin-3-yl)benzamide], the results for the EC50 in assay [1] and in assay [3] were 4060 nM and 741 nM, respectively. Moreover, in assay [2], the Emax is 19%.
As to `CN1CCN(c2cccc3[nH]c(-c4n[nH]c5ccc(-c6cncnc6)nc45)cc23)CC1` [Compound 251, 3-(4-(4-Methylpiperazin-1l-yl)-1H-indol-2-yl)-5-(pyrimidin-5-yl)-1H-pyrazolo[4,3-b]pyridine], the inhibition at 10 µM in assay [1] (given where EC50 >10 μM, 10 μM, read-out: percent inhibition at 10 μM) was 38.4%. Moreover, the figures for the EC50 in assay [1], in assay [2] and in assay [3] were > 10000 nM, 100 nM and 751 nM, respectively. In assay [2], the Emax stood at 67%.
As for `CN(C)Cc1cncc(-c2ccc3[nH]nc(-c4cc5ccccc5[nH]4)c3n2)c1` [Compound 265, 1-(5-(3-(1H-Indol-2-yl)-1H-pyrazolo[4,3-b]pyridin-5-yl)pyridin-3-yl)-N,N-dimethylmethanamine], the EC50 in assay [1] was determined as 904 nM. Besides, the Emax in assay [2] was 21%. Further, in assay [3], the EC50 was > 10000 nM and the inhibition at 10 µM was determined as 0%.
With `FC1(F)CCN(Cc2cncc(-c3ccc4[nH]nc(-c5cc6ccccc6[nH]5)c4n3)c2)C1` [Compound 278, 5-(5-((3,3-Difluoropyrrolidin-1-yl)methyl)pyridin-3-yl)-3-(1H-indol-2-yl)-1H-pyrazolo[4,3-b]pyridine], the EC50 came out at 117 nM in assay [1], 2700 nM in assay [2] and 207 nM in assay [3]. For the same compound, the Emax in assay [2] was 293%.
The corresponding values for `CN(C)c1cncc(-c2ccc3[nH]nc(-c4cc5c(-c6ccoc6)cccc5[nH]4)c3n2)c1` [Compound 315, 5-(3-(4-(Furan-3-yl)-1H-indol-2-yl)-1H-pyrazolo[4,3-b]pyridin-5-yl)-N,N-dimethylpyridin-3-amine] are 600 nM, 2700 nM, 1370 nM and 80%.
Regarding `c1cc(-c2ccoc2)c2cc(-c3n[nH]c4ccc(-c5cncc(CNCC6CCCC6)c5)nc34)[nH]c2c1` [Compound 333, 1-Cyclopentyl-N-((5-(3-(4-(furan-3-yl)-1H-indol-2-yl)-1H-pyrazolo[4,3-b]pyridin-5-yl)pyridin-3-yl)methyl)methanamine], the EC50 was 3640 nM in assay [1] and 3570 nM in assay [3]. The Emax in assay [2] stood at 25%.
Consider `CN(C)CCNc1cc(F)cc(-c2cccc3[nH]c(-c4n[nH]c5ccc(-c6cccnc6)nc45)cc23)c1` [Compound 452, N^1-(3-Fluoro-5-(2-(5-(pyridin-3-yl)-1H-pyrazolo[4,3-b]pyridin-3-yl)-1H-indol-4-yl)phenyl)-N^2,N^2-dimethylethane-1,2-diamine], for which the EC50 worked out at 239 nM in assay [1], 2700 nM in assay [2] and 68 nM in assay [3]. The Emax in assay [2] stood at 67%.
In the case of `CN(C)CCNc1cc(F)cc(-c2cccc3[nH]c(-c4n[nH]c5ccc(-c6cncc(CN7CCCCC7)c6)nc45)cc23)c1` [Compound 463, N^1-(3-Fluoro-5-(2-(5-(5-(piperidin-1-ylmethyl)pyridin-3-yl)-1H-pyrazolo [4,3-b]pyridin-3-yl)-1H-indol-4-yl)phenyl)-N^2,N^2-dimethylethane-1,2-diamine], the EC50 is 1390 nM in assay [1] and 209 nM in assay [3]. The Emax in assay [2] was 48%.
In the case of `CN(C)CCNc1cc(F)cc(-c2cccc3[nH]c(-c4n[nH]c5ccc(-c6cncnc6)nc45)cc23)c1` [Compound 475, N^1-(3-Fluoro-5-(2-(5-(pyrimidin-5-yl)-1H-pyrazolo[4,3-b]pyridin-3-yl)-1H-indol-4-yl)phenyl)-N^2,N^2-dimethylylethane-1,2-diamine], the EC50 in assay [1] is 498 nM; in assay [2], 10 nM; in assay [3] it was 18 nM. Besides, in assay [2], the Emax came to 181%.
Consider `CN(C)CCNc1cc(F)cc(-c2cccc3[nH]c(-c4n[nH]c5ccc(-c6ccccn6)nc45)cc23)c1` [Compound 476, N^1-(3-Fluoro-5-(2-(5-(pyridin-2-yl)-1H-pyrazolo[4,3-b]pyridin-3-yl)-1H-indol-4-yl)phenyl)-N^2,N^2-dimethylethane-1,2-diamine], for which the EC50 in assay [1] turned out to be 4620 nM; in assay [3], 278 nM. Further, in assay [2], the Emax amounted to 42%.
Consider `Cc1ccncc1-c1ccc2[nH]nc(-c3cc4c(-c5cc(F)cc(CNS(C)(=O)=O)c5)cccc4[nH]3)c2n1` [Compound 481, N-(3-Fluoro-5-(2-(5-(4-methylpyridin-3-yl)-1H-pyrazolo[4,3-b]pyridin-3-yl)-1H-indol-4-yl)benzyl)methanesulfonamide], for which the EC50 in assay [1] was 162 nM; in assay [2] it was 900 nM; in assay [3], 101 nM. Besides, in assay [2], the Emax was 143%.
For the compound `c1cc(-c2ccncc2)c2cc(-c3n[nH]c4ccc(-c5cncc(OCCN6CCCC6)c5)nc34)[nH]c2c1` [Compound 606, 3-(4-(Pyridin-4-yl)-1H-indol-2-yl)-5-(5-(2-(pyrrolidin-1-yl)ethoxy)pyridin-3-yl)-1H-pyrazolo[4,3-b]pyridine], the results for the EC50 in assay [1], in assay [2] and in assay [3] were 4990 nM, 900 nM and 27 nM, respectively. Besides, the Emax in assay [2] stood at 74%.
